Consider one molecule from patent publication US20200138802A1, “Aggressive Lipid Lowering Therapy in Coronary Artery Disease” (Kowa Company, Ltd., priority 2018, published 2020).

The nature of assay [1]: Randomized open-label phase 4 trial of pitavastatin 4 mg/day versus 1 mg/day in Japanese patients with stable coronary artery disease. Type of assay: in vivo, human. The procedure: This study was a prospective, multicenter, randomized, open-label, blinded-endpoint, physician-initiated phase 4 trial designed to investigate whether high-dose statin therapy could reduce CV events in patients with stable CAD as compared with low-dose statin therapy. We hypothesized that aggressive lipid lowering treatment with pitavastatin 4 mg/day would reduce the incidence of the composite endpoint comprised of CV death, non-fatal myocardial infarction (MI), non-fatal ischemic stroke, and unstable angina requiring emergency hospitalization. The control group received pitavastatin 1 mg/day.
Men and women aged 20 to 80 years with clinically evident stable CAD and elevated LDL-C were eligible for this study. CAD was defined as 1) previous ACS, such as acute myocardial infarction or unstable angina; 2) a previous coronary revascularization procedure (PCI or coronary artery bypass grafting (“CABG”)); or 3) atherosclerotic CAD detected by coronary artery angiography with at least 75% stenosis in major epicardial coronary arteries (American Heart Association classification). (30) Patients with elevated LDL-C at entry were defined as (1) patients not receiving chronic lipid-lowering therapy with LDL-C≥140 mg/dL, (2) patients with LDL-C≥100 mg/dL and considered by the attending physician to need lipid-lowering therapy, or (3) patients being treated with lipid-lowering therapy.
Exclusion criteria included (1) any planned coronary revascularization procedure, (2) active malignancy, (3) contraindication for pitavastatin (hypersensitivity to pitavastatin, severe liver disease or hepatic dysfunction, concurrent cyclosporine use, or suspected or confirmed pregnancy or current breastfeeding), (4) severe congestive heart failure (ejection fraction<30% or NYHA class≥3), (5) current hemodialysis, (6) familial hypercholesterolemia, (7) current participation in another clinical trial, (8) current use of any prohibited drug (lipid-lowering drug other than pitavastatin) that could not be discontinued during the study, and (9) any other finding that would make the patient unsuitable for this study in the opinion of the investigators.
Participants were recruited at 733 hospitals in Japan. During screening visits, informed consent and baseline medical history were obtained, and a clinical examination and laboratory testing were performed. Blood samples were collected to determine fasting lipid levels and the patient's standard clinical profile. After discontinuation of all previous lipid-lowering therapies, all eligible patients started receiving treatment with pitavastatin 1 mg/day on an open-label basis for at least 1 month (run-in period). At the end of the run-in period (week 0), those patients with LDL-C levels below 120 mg/dL, measured by a central laboratory using Friedwald's formula, were eligible for randomization. Patients with prior ACS or coronary revascularization could be randomized beyond 3 months after the index event. Randomization was not allowed for patients with poor adherence (less than 50%) for the study drug during the run-in period or for patients with the primary endpoint events during the run-in period.
Patients were randomized in a 1:1 ratio to either pitavastatin 4 mg or pitavastatin 1 mg once daily. Randomized treatment assignment was stratified by 5 factors: 1) institution, 2) prior statin use, 3) age (<65 or ≥65), 4) diabetes, and 5) sex. Patients were to be followed for 3 years, and study visits were scheduled at 6 months for the first visit and every year thereafter. At each visit, information on vital signs, clinical endpoints, adverse events, and concurrent medication was collected. In addition, physical examinations and electrocardiograms were performed and blood specimens were collected at 6 months and every 12 months thereafter for lipid and other laboratory tests. […]

For assay [2] the following is noted: 4 mg of pitavastatin; cited from earlier work.

As for `O=C(O)C[C@H](O)C[C@H](O)/C=C/c1c(C2CC2)nc2ccccc2c1-c1ccc(F)cc1` [pitavastatin], the “incidence rates of individual CV events: death from any cause, myocardial infarction, and coronary revascularization results” value in assay [1] (1 mg and 4 mg pitavastatin groups, FIG. 8) is “positive”. The LDL-C entry in assay [1] (patients converted from 1 mg dose to 4 mg dose of pitavastatin, stable CAD, FIG. 2) is given as “statistically significant reduction”. Also, the HDL-C result in assay [1] (patients converted from 1 mg dose to 4 mg dose of pitavastatin, stable CAD, FIG. 3) was “numerically superior increase”. In addition, the TG entry in assay [1] (patients converted from 1 mg dose to 4 mg dose of pitavastatin, stable CAD, FIG. 4) is “statistically significant reduction”. Besides, in assay [1] (patients converted from 1 mg dose to 4 mg dose of pitavastatin, stable CAD, FIG. 5), the hs-CGP result was “statistically significant reduction”. Besides, the “primary clinical endpoint (composite of CV death, MI, ischemic stroke and UA)” value in assay [1] (patients converted from 1 mg dose to 4 mg dose of pitavastatin, stable CAD, FIG. 6) is “statistically significant reduction”. The “secondary clinical endpoint (primary endpoint+coronary revascularization)” value in assay [1] (patients converted from 1 mg dose to 4 mg dose of pitavastatin, stable CAD, FIG. 7) is “statistically significant reduction”. In assay [1] (subgroup analysis, 1 mg versus 4 mg pitavastatin, FIG. 9), the “effect of LDL-C status (≥95 mg/dL or <95 mg/dL) on primary endpoint incidence rates” value is “did not affect the results”. Also, the “reduction of LDL-C from baseline” value in assay [2] is reported as 42.9%.
